# Measurements from US20230416329A1, “A PEPTIDE WITH DISULFIDE BONDS AND INHIBITORY ACTIVITY AGAINST SERINE PROTEASES, DERIVED HYBRID PEPTIDES THEREOF, AND USES THEREOF” (INSTITUTE OF MATERIA MEDICA , CHINESE ACADEMY OF MEDICAL …, priority 2020, published 2023).
# Bridge positions count the residues as written; N and C are the ends. Ends that are not written are not given here.
# Columns and labels:
# [1] = biological target: T1, interaction of PCSK9-LDLR (Homo sapiens, UniProt Q8NBP7); assay: PCSK9-LDLR in vitro binding assay (inhibitory rate); conditions: in vitro
# T1 construct: purchased MBL Company, Beijing, China CY-8150
# Method: Polypeptide PCSK9_1-14 (SEQ ID NOs: 210-223) is dissolved in pure water or DMSO. 85 μL reaction buffer, 5 μL 1 mM polypeptide sample and 10 μL 750 ng/mL PCSK9 protein was pre-incubated at room temperature for 20 minutes before being added to a 96 well plate. The OD450/540 nm value was measured according to the instructions of the PCSK9-LDLR in Vitro Binding Assay Kit (CY-8150, MBL Company, Beijing, China). Solvent control: replace polypeptide with 5 μL solvent. In 100 μL reaction system, the final concentration of the polypeptide and PCSK9 is 50 μM and 75 ng/mL, respectively.
# Inhibition rate of polypeptide (%)=(OD450/540 nm(solvent control)−OD450/540 nm (sample))/OD450/540 nm(solvent control)×100
# [2] = system: P407-induced hyperlipidemia mice; assay: Subcutaneous injection of PCSK9 inhibitory peptide, serum total cholesterol in P407-induced hyperlipidemia mice; type: in vivo, mouse; conditions: for serum total cholesterol (TC) level after subcutaneous injection (in words): 2 μmol/kg single s.c., P407-induced hyperlipidemia mice
# Method: The experimental peptide sample was prepared using PEG400 with a final concentration of […], and the final concentration of PEG400 is 20% (w/v). Normal ICR mice were fasted overnight with water ad libitum. The next day, all of the mice were randomly divided into model control group (Con) and polypeptide administration group (2 μmol/kg) according to body weight. Then, all of the mice were intraperitoneally injected with P407 (500 mg/kg) and fed with feed 2 hours later. Six mice were taken as a normal control group (Nor). After 24 hours, the mice in Con were subcutaneously injected with saline containing 20% PEG400, and the mice in the treatment group were given peptides. Then, the blood was taken at different time points after administration to determine the serum total cholesterol (TC) level. In consideration of the complexity of factors affecting serum LDL-C levels, especially the differences between single and long-term administration, the in vivo activity of PCSK9 inhibitory peptide is mainly observed for changes in serum TC levels.
# [3] = system: P407 induced hyperlipidemia mice; assay: Duodenal injection of PCSK9 inhibitory peptide, serum total cholesterol in P407 induced hyperlipidemia mice; type: in vivo, mouse
# Method: The experimental polypeptide sample was prepared using PEG400 with a final concentration of 20 μmol/kg and the final concentration of PEG400 is 50% (w/v). The control group was saline containing PEG400 (50%).
# Normal ICR mice were fasted overnight with water ad libitum. The next day, all of the mice were intraperitoneally injected with poloxamer 407 (P407, 500 mg/kg) to establish a model of lipid metabolism disorder. Six mice were intraperitoneally injected with saline as a normal control (Nor). Normal feeding resumed after 2 hours. The model animals were randomly divided into model group (Con) and polypeptide groups according to body weight, and the blood was collected from tail tip (0 min). Then, the animals were anesthetized with ether for duodenal exposure surgery. At the same time, a sample or saline containing PEG400 was injected through the duodenum. Finally, the wound was sutured. The blood was collected from tail tip at 15, 30, 60, and 90 minutes after administration to determine the serum total cholesterol level.
substance,measurement,setting,value
Trp-Glu-Glu-Tyr-Leu-Asp-Tyr-Val-Gly-Phe-Cys-Thr-Tyr-Ser-Ile-Pro-Pro-Gln-Cys-Tyr-Gly-Thr-Val-Phe-Thr-Ser (WEEYLDYVGFCTYSIPPQCYGTVFTS; disulfide 11-19 (inferred)) [PCSK9_6CH],inhibitory activity on the interaction between PCSK9 and LDLR (in words),[1],good inhibitory activity on the interaction between PCSK9 and LDLR
same,inhibitory activity on the interaction between PCSK9 and LDLR (in words),[1]; listed as SEQ ID NO: 230,good inhibitory effects in vitro
same,serum total cholesterol (TC) level after subcutaneous injection (in words),[2],reduced serum TC level
same,serum total cholesterol (TC) level after subcutaneous injection (in words),[2]; listed as SEQ ID NO: 230,excellent lowering lipid (total cholesterol) activities in vivo
same,TC 15 min,"[2]; serum, subcutaneous 2 μmol/kg, 15 min after administration, mean ± sd",3201 ± 1389 µg/mL
same,TC 30 min,"[2]; serum, subcutaneous 2 μmol/kg, 30 min after administration, mean ± sd",3363 ± 865 µg/mL
same,TC 60 min,"[2]; serum, subcutaneous 2 μmol/kg, 60 min after administration, mean ± sd",2691 ± 979 µg/mL
same,TC 90 min,"[2]; serum, subcutaneous 2 μmol/kg, 90 min after administration, mean ± sd",2655 ± 954 µg/mL
same,hypolipidemic activity after duodenal administration (in words),"[3]; 20 μmol/kg, P407 induced hyperlipidemia mice",did not show hypolipidemic activity
same,TC 15 min,"[3]; serum, duodenal injection 20 μmol/kg, 15 min, mean ± sd",2742 ± 651 µg/mL
same,TC 30 min,"[3]; serum, duodenal injection 20 μmol/kg, 30 min, mean ± sd",3071 ± 590 µg/mL
same,TC 60 min,"[3]; serum, duodenal injection 20 μmol/kg, 60 min, mean ± sd",3127 ± 567 µg/mL
same,TC 90 min,"[3]; serum, duodenal injection 20 μmol/kg, 90 min, mean ± sd",2986 ± 650 µg/mL
